16 molecules from patent US20140018288A1, “X-DING-CD4 Peptide” (priority 2012, published 2014) can be followed below.

Experiment [1] has as its system cellular uptake of X-DING-CD4 protein. Kind of experiment: Cellular uptake of X-DING-CD4 protein tested by RSA in 1G5 cells treated with uptake inhibitors. It is filed as cell-based. The procedure:
Cellular uptake of X-DING-CD4 protein was tested by RSA in 1G5 cells treated with chemicals affecting: (i) clatrin mediated endocytosis—[…] (CPZ); (ii) endocytosis—cytochalasin D (CCD) and chloroquine (CQ) or (iii) macropinocytosis—dimethyl amiloride (DMA). Untreated group referred to the experimental system where X-DING-CD4 mediated inhibition of transcription was measured without cellular exposure to chemicals.

The test system of experiment [2] is HIV-1 LTR promoter. Kind of experiment: Rapid Suppression Assay (RSA), PMA-induced HIV-1 LTR-driven luciferase in 1G5 cells. The format is cell-based. The note with it: RSA; for IC50: 1G5 cells, PMA 5 ng/ml, read-out: IC50, HIV-1 LTR promoter inhibition; for IC50, HIV-1 LTR promoter inhibition, mass concentration: Table 1. An excerpt:
We applied the cell based Rapid Suppression Assay (RSA) for testing X-DING-CD4-induced inhibition of HIV-1 LTR promoter (Lesner et al., 2004; Lesner et al., 2005). Briefly, 1 G5 cells (obtained through the NIH AIDS Research and Reagent Program, Division of AIDS, NIAID, NIH) that are stably transfected with an inducible luciferase gene driven by HIV-1 LTR (Aguilar-Cordova et al., 1994) were washed in PBS, resuspended in hybridoma medium to concentration of 5×10^6cells/ml. For purpose of generating control titration curves, 100 μl aliquots of 1G5 cells were mixed with 100 μl cell culture medium either supplemented with various amount of rX-DING-CD4^pep (SEQ ID No: 1) or no rX-DING-CD4^pep, and incubated for three hours at 37° C. Subsequently, all cells were induced with phorbol 12-myristate 13-acetate (PMA) at a concentration of 5 ng/ml. Two control tubes containing 1G5 cells without rX-DING-CD4^pep treatment were resuspended in hybridoma medium with or without PMA. Three hours later cells were collected by centrifugation and lysed in the same tubes using Reporter Lysis buffer (Promega). The expression levels of luciferase protein in the lysates were determined according to the manufacturer's protocol. The X-DING-CD4^pep inhibition values were established based on the formula: [(LUC1-LUC0)×100/Z]−100; where LUC1 is the value obtained from cells induced by PMA and treated with a specific dilution of X-DING-CD4^pep; and LUC0 is the basal value obtained from the uninduced and untreated cells; Z is the absolute luciferase induction by PMA calculated as Z=LUCmax-LUCO3 where LUCmax is the value of 100% luciferase expression in PMA induced X-DING-CD4^pep untreated cells.
One aspect of the present invention is related to X-DING-CD4 peptide derivatives. Here we obtained 15 derivatives SED ID NOS: 1-15 by recombination or in vitro synthesis. We tested the biological activity of some these derivatives by rapid suppression assay (RSA). In XD-4M, the third amino acid glycine in the native X-DING-CD4 peptide was substituted with the polar amino acid glutamine. In XD-7, the two amino acids, cysteine and valine, replaced the three amino acids, glycine, serine and aspartic acid, in the native X-DING-CD4 peptide. In XD-12 and XD-12sh, the 69th amino acid glutamic acid in the native X-DING-CD4 peptide was methylated. In XD-9, the 69th amino acid glutamic acid in the native X-DING-CD4 peptide was substituted with the amino acid glutamine. The RSA procedure was similar to that described in Example 2. The inhibitory values are plotted in FIG. 5.
We performed the rapid suppression assay (RSA) which tests directly the inhibition of HIV-1 transcription (similar to the procedure described in Example 2), the MAGI assay which tests the inhibition of HIV-1 replication in a single cycle infection (similar to the procedure described in Example 2), and the HIV-1 infection inhibition assay in human PBLs.

On to `CN(C)CCCN1c2ccccc2Sc2ccc(Cl)cc21` [CPZ, Chromopromazine], for which the “effect of uptake inhibitor on sX-DING-CD4 inhibition of LTR transcription” value (shortened to “effect of uptake inhibitor”) in experiment [1] is given as “still demonstrated inhibitory effects of sX-DING-CD4 on LTR transcription”.
`C=C1[C@@H](C)[C@H]2[C@H](Cc3ccccc3)NC(=O)[C@]23[C@H](OC(C)=O)/C=C/[C@@](C)(O)C(=O)[C@@H](C)C/C=C/[C@H]3[C@@H]1O` [CCD, cytochalasin D]: the “effect of uptake inhibitor” value in experiment [1] is “still demonstrated inhibitory effects of sX-DING-CD4 on LTR transcription”.
Take `CCN(CC)CCCC(C)Nc1ccnc2cc(Cl)ccc12` (stereo not shown) [CQ, chloroquine]: the “effect of uptake inhibitor” value in experiment [1] is reported as “still demonstrated inhibitory effects of sX-DING-CD4 on LTR transcription”.
A word on the IC50: it is the concentration that inhibits the measured activity by half. As to GVSNKNVHWAGSDSKLTATLLSTY [XD-15], in experiment [2], the IC50 stood at 36.7 nM and the “IC50, HIV-1 LTR promoter inhibition, mass concentration” value (from here on “IC50, HIV-1 LTR promoter inhibition”) was “(93.5 ng/ml)”.
For the molecule KNVHWAGSDSKLTSTELSTY [XD-4], in experiment [2], the IC50 was determined as 31 nM and the “IC50, HIV-1 LTR promoter inhibition” value was “(70 ng/ml)”.
Regarding GTKNVHWAGSDSKLTSTELSTYC [XD-5], in experiment [2], the IC50 was determined as 35.8 nM and the “IC50, HIV-1 LTR promoter inhibition” value is “(88.7 ng/ml)”.
As to `CN(C)c1nc(N)c(C(=O)N=C(N)N)nc1Cl` [DMA, dimethyl amiloride], the “effect of uptake inhibitor” value in experiment [1] is recorded as “abolished the inhibitory effect of sX-DING-CD4 on LTR transcription”.
On to GVSNKNVHWAGSDSKLTAT [XD-14], for which, in experiment [2], the IC50 was found to be 36.8 nM and the “IC50, HIV-1 LTR promoter inhibition” value is given as “(72.5 ng/ml)”.
On to GVSNKNVHWAGSDSKLTATQLSTY [XD-13], for which, in experiment [2], the IC50 stood at 30.2 nM and the “IC50, HIV-1 LTR promoter inhibition” value is on record as “(77.5 ng/ml)”.
DINGGGATLPQK [XD-1]: in experiment [2], the IC50 was determined as 51.2 nM and the “IC50, HIV-1 LTR promoter inhibition” value is “(60 ng/ml)”.
For YTSLE [XD-12sh, YTSLE(OMe)], in experiment [2], the IC50 is 121 nM and the “IC50, HIV-1 LTR promoter inhibition” value is recorded as “(74 ng/ml)”.
The matching figures for GVSNKNVHWAGSDSKLTATE(OMe)LSTY [XD-12]: 33.7 nM and “(86.2 ng/ml)”.
On the same counts, the results for LLSTY [XD-15sh] are 157 nM and “(93.5 ng/ml)”.
On to QLSTY [XD-13sh], for which, in experiment [2], the IC50 came out at 121 nM and the “IC50, HIV-1 LTR promoter inhibition” value is on record as “(74 ng/ml)”.
As for DINGGQTLPQK [XD-4M], in experiment [2], the IC50 worked out at 57 nM and the “IC50, HIV-1 LTR promoter inhibition” value was “(66.9 ng/ml)”.
On the same counts, the results for GTKNVHWACVSKLTSTELSTY [XD-7] are 29.8 nM and “(69.3 ng/ml)”.
